This note sets out measurements from PubChem BioAssay AID330 (DTP/NCI, 2004).

For the assay, the system named is P388 leukemia ip, CD2F1 mice, survival T/C. Description: NCI In Vivo Anticancer Drug Screen. Data for tumor model P388 Leukemia (intraperitoneal) in CD2F1 (CDF1) mice. As to conditions: endpoint: median survival time, higher = longer survival. The method, boiled down:
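Mice carrying the transplanted tumor received test compound or vehicle. Survival was recorded in each group, and the value is the treated-group measurement divided by that of the vehicle-treated control group.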

The mark [1] stands for this setting: dose: 50.0 mg/kg/injection, schedule: Q01DX005 (ip), vehicle: Klucel (hydroxypropylcellulose) (HPC).
Setting [2] is: dose: 100.0 mg/kg/injection, schedule: Q01DX005 (ip), vehicle: Klucel (hydroxypropylcellulose) (HPC).
[3] abbreviates: dose: 200.0 mg/kg/injection, schedule: Q01DX005 (ip), vehicle: Klucel (hydroxypropylcellulose) (HPC).
Setting [4] is: dose: 50.0 mg/kg/injection, schedule: Q01DX009 (ip), vehicle: Klucel (hydroxypropylcellulose) (HPC).
Where [5] appears, read: dose: 100.0 mg/kg/injection, schedule: Q01DX009 (ip), vehicle: Klucel (hydroxypropylcellulose) (HPC).
[6] abbreviates: dose: 200.0 mg/kg/injection, schedule: Q01DX009 (ip), vehicle: Klucel (hydroxypropylcellulose) (HPC).
The mark [7] stands for this setting: dose: 100.0 mg/kg/injection, schedule: Q01DX009 (ip), vehicle: saline.
[8] abbreviates: dose: 200.0 mg/kg/injection, schedule: Q01DX009 (ip), vehicle: saline.
Setting [9] is: dose: 60.0 mg/kg/injection, schedule: Q01DX005 (ip), vehicle: saline with Tween-80.
Setting [10] is: dose: 120.0 mg/kg/injection, schedule: Q01DX005 (ip), vehicle: saline with Tween-80.
Where [11] appears, read: dose: 50.0 mg/kg/injection, schedule: Q01DX009 (ip), vehicle: saline.
The mark [12] stands for this setting: dose: 240.0 mg/kg/injection, schedule: Q01DX005 (ip), vehicle: saline with Tween-80.
[13] abbreviates: dose: 12.5 mg/kg/injection, schedule: Q01DX009 (ip), vehicle: saline.
Setting [14] is: dose: 25.0 mg/kg/injection, schedule: Q01DX009 (ip), vehicle: saline.
Where [15] appears, read: dose: 50.0 mg/kg/injection, schedule: Q01DX005 (ip), vehicle: saline with Tween-80.
The mark [16] stands for this setting: dose: 100.0 mg/kg/injection, schedule: Q01DX005 (ip), vehicle: saline with Tween-80.
[17] abbreviates: dose: 200.0 mg/kg/injection, schedule: Q01DX005 (ip), vehicle: saline with Tween-80.

Several values for one entry are separate records, joined by “and”; a condition that tells them apart may be missing. Identical values can stand only once. Toxic doses and inconclusive results are not listed.

With `Cc1cc(-c2ccccc2)[s+]s1`, the T/C (dose: 12.5 mg/kg/injection, schedule: Q01DX009 (ip), vehicle: distilled water + Tween-80) was 101 % of control; the T/C (dose: 25.0 mg/kg/injection, schedule: Q01DX009 (ip), vehicle: distilled water + Tween-80) was 115 % of control; the T/C (dose: 50.0 mg/kg/injection, schedule: Q01DX009 (ip), vehicle: distilled water + Tween-80) is 117 % of control; the T/C (dose: 100.0 mg/kg/injection, schedule: Q01DX009 (ip), vehicle: distilled water + Tween-80) was 111 % of control; the T/C (dose: 200.0 mg/kg/injection, schedule: Q01DX009 (ip), vehicle: distilled water + Tween-80) is 117 % of control.
For `CCC(=O)Nc1n[nH]c(NC(=O)CC)n1`, the T/C under setting [1] was 103 % of control, the T/C under setting [2] is 100 % of control and the T/C under setting [3] is 100 % of control.
For `Nc1cc2c(c[n+](CCO)c3ccccc23)c2ccccc12`, the T/C was 118 % of control (dose: 12.5 mg/kg/injection, schedule: Q04DX003 (ip), vehicle: other); 111 % of control (dose: 25.0 mg/kg/injection, schedule: Q04DX003 (ip), vehicle: other); 118 % of control (dose: 50.0 mg/kg/injection, schedule: Q04DX003 (ip), vehicle: other); 102 % of control (dose: 100.0 mg/kg/injection, schedule: Q04DX003 (ip), vehicle: other).
Regarding `N#CC1CCCC(CCc2ccccc2)(c2ccccc2)C1=O` (stereo not given), the T/C is 101 % of control under setting [4], 104 % of control under setting [5] and 98 % of control under setting [6].
On to `CN(CCNN1CCCC1)Cc1ccccc1Cl`, for which the T/C by setting is: (dose: 12.5 mg/kg/injection, schedule: Q01DX005 (ip), vehicle: saline) 102 % of control; (dose: 25.0 mg/kg/injection, schedule: Q01DX005 (ip), vehicle: saline) 105 % of control; (dose: 50.0 mg/kg/injection, schedule: Q01DX005 (ip), vehicle: saline) 102 % of control and 108 % of control; (dose: 100.0 mg/kg/injection, schedule: Q01DX005 (ip), vehicle: saline) 103 % of control.
As for `Cc1nc2[nH][nH]c(=O)c2nc1C`, the T/C (dose: 100.0 mg/kg/injection, schedule: Q01DX009 (ip), vehicle: saline with Tween-80) was 100 % of control; the T/C under setting [7] is 108 % of control; the T/C (dose: 200.0 mg/kg/injection, schedule: Q01DX009 (ip), vehicle: saline with Tween-80) was 96 % of control; the T/C under setting [8] is 102 % of control; the T/C (dose: 400.0 mg/kg/injection, schedule: Q01DX009 (ip), vehicle: saline with Tween-80) is 94 % of control; the T/C (dose: 400.0 mg/kg/injection, schedule: Q01DX009 (ip), vehicle: saline) was 102 % of control. The T/C is 94 % of control (dose: 600.0 mg/kg/injection, schedule: Q01DX009 (ip), vehicle: saline with Tween-80) and 98 % of control (dose: 600.0 mg/kg/injection, schedule: Q01DX009 (ip), vehicle: saline).
Consider `OCC(O)CNc1ncnc2cc(Cl)ccc12` (stereo not given), for which the T/C is 100 % of control (dose: 25.0 mg/kg/injection, schedule: Q01DX005 (ip), vehicle: Klucel (hydroxypropylcellulose) (HPC)); 96 % of control under setting [1]; 102 % of control under setting [2]; 105 % of control under setting [3].
For `CC(=O)c1c[nH]c(=O)c2cc3c(cc12)OCO3`, the T/C runs as follows: under setting [9], 95 % of control; under setting [10], 91 % of control.
Regarding `COc1ccccc1-n1cc[n+](C)c1/C=N/O`, the T/C by setting is: (dose: 12.5 mg/kg/injection, schedule: Q01DX009 (ip), vehicle: saline with Tween-80) 86 % of control; (dose: 25.0 mg/kg/injection, schedule: Q01DX009 (ip), vehicle: saline with Tween-80) 90 % of control; under setting [11], 99 % of control.
In the case of `CC1(C)Cc2oc(=Nc3ccccc3)n(-c3ccccc3)c(=O)c2C1`, the T/C reads like this: under setting [4], 105 % of control; under setting [5], 114 % of control; under setting [6], 102 % of control.
With `[Se]=[Hf]=[Se]`, the T/C was 97 % of control under setting [9], 97 % of control under setting [10] and 94 % of control under setting [12].
Take `N#C/C(=C\c1ccccn1)c1nc(-c2ccc(Cl)cc2)cs1`: the T/C reads like this: under setting [11], 102 % of control; under setting [7], 92 % of control; under setting [8], 92 % of control.
For the compound `O=S(=O)(SC(S(=O)(=O)c1ccccc1)S(=O)(=O)c1ccccc1)c1ccccc1`, the T/C was 123 % of control under setting [6] and 123 % of control (dose: 400.0 mg/kg/injection, schedule: Q01DX009 (ip), vehicle: Klucel (hydroxypropylcellulose) (HPC)).
With `O=C(Nc1cccc(C(F)(F)F)c1)c1cc2cc(Br)ccc2oc1=O`, the T/C reads like this: (dose: 60.0 mg/kg/injection, schedule: Q01DX005 (ip), vehicle: Klucel (hydroxypropylcellulose) (HPC)) 102 % of control; (dose: 120.0 mg/kg/injection, schedule: Q01DX005 (ip), vehicle: Klucel (hydroxypropylcellulose) (HPC)) 96 % of control; (dose: 240.0 mg/kg/injection, schedule: Q01DX005 (ip), vehicle: Klucel (hydroxypropylcellulose) (HPC)) 92 % of control.
As for `Cc1c(COC(=O)NC(C)C)c(COC(=O)NC(C)C)c2n1CSC2`, the T/C (dose: 6.25 mg/kg/injection, schedule: Q01DX005 (ip), vehicle: Klucel + Tween-80) was 154 % of control; the T/C (dose: 25.0 mg/kg/injection, schedule: Q01DX005 (ip), vehicle: Klucel + Tween-80) was 169 % of control and 173 % of control.
For `O=C(/C=C/c1ccccc1)c1ccccc(=O)c1O`, the T/C reads like this: under setting [1], 105 % of control; under setting [2], 113 % of control; under setting [3], 104 % of control.
The corresponding values for `CCOC(=O)CSC(=O)c1cccnc1Oc1ccccc1` are 94 % of control, 90 % of control and 93 % of control.
As to `O=[N+]([O-])c1ccc(/C(=C\c2ccc(-c3ccccc3)o2)S(=O)(=O)c2ccccc2)o1`, the T/C under setting [13] is 89 % of control and the T/C under setting [14] was 89 % of control.
Regarding `c1ccc(-c2cnn3nnnc3n2)cc1`, the T/C (dose: 100.0 mg/kg/injection, schedule: Q01DX001 (ip), vehicle: saline) was 104 % of control; the T/C (dose: 200.0 mg/kg/injection, schedule: Q01DX001 (ip), vehicle: saline) was 102 % of control; the T/C (dose: 400.0 mg/kg/injection, schedule: Q01DX001 (ip), vehicle: saline) was 101 % of control.
Take `CCCCN(CCCC)CC(C)(C)C(O)c1ccc(OC)c2ccccc12` (stereo not given): the T/C reads like this: (dose: 12.5 mg/kg/injection, schedule: Q01DX005 (ip), vehicle: saline with Tween-80) 106 % of control; (dose: 25.0 mg/kg/injection, schedule: Q01DX005 (ip), vehicle: saline with Tween-80) 106 % of control; under setting [15], 101 % of control and 103 % of control.
As to `Cc1cc(=O)oc2cc3occc(=O)c3cc12`, the T/C under setting [9] was 98 % of control, the T/C under setting [10] was 95 % of control and the T/C under setting [12] is 92 % of control.
As to `OC1(c2nccc3ccccc23)CCN(CCc2ccccc2)CC1`, the T/C is, setting by setting: under setting [13], 102 % of control; under setting [14], 97 % of control; (dose: 50.0 mg/kg/injection, schedule: Q01DX009 (ip), vehicle: saline with Tween-80) 87 % of control; under setting [11], 108 % of control.
For `Cc1cc(C)nc(NS(=O)(=O)c2ccc(NC(=O)c3cccnc3Nc3cccc(Cl)c3)cc2)n1`, the T/C is 105 % of control under setting [9], 115 % of control under setting [10] and 112 % of control under setting [12].
On to `COc1ccc2c(c1)OC(=O)C(S(=O)(=O)c1ccccc1)C2` (stereo not given), for which the T/C was 102 % of control under setting [15], 96 % of control under setting [16] and 101 % of control under setting [17].
On to `CC(=O)Nc1cnc2c(nc3cc(C)ccn32)c1C`, for which the T/C is 106 % of control under setting [9], 100 % of control under setting [10] and 97 % of control under setting [12].
As for `COC(=O)C1=COC(C)C2CN3CCc4c([nH]c5cc(OC)ccc45)C3CC12` (stereo not given), the T/C is, setting by setting: under setting [15], 91 % of control; under setting [16], 109 % of control; under setting [17], 109 % of control.
With `COc1cc(C2c3cc4c(cc3OC(C)(OC)C2C(C)=O)OCO4)cc(OC)c1O` (stereo not given), the T/C runs as follows: under setting [9], 91 % of control; under setting [10], 95 % of control; under setting [12], 97 % of control.
For `CCCCCCCCCCCCCCCCON`, the T/C was 103 % of control under setting [4] and 111 % of control under setting [5].
